Experimental data reported in patent US6977262B2, “Dihydropyrazolopyridine compounds and pharmaceutical use thereof” (Mitsubishi Pharma Corporation, priority 2001, dated 2005).

melting point [°C] | SMILES
223 | CCCC1=C(C(=O)OCC)C(c2ccccc2Br)c2c[nH]nc2N1 (stereo not shown) [Example 29, Ethyl 4-(2-bromophenyl)-4,7-dihydro-6-propyl-2H-pyrazolo[3,4-b]pyridine-5-carboxylate]
178 | CCCC1=C(C(=O)OCC)C(c2ccccc2C)c2c[nH]nc2N1 (stereo not shown) [Example 30, Ethyl 4,7-dihydro-4-(2-methylphenyl)-6-propyl-2H-pyrazolo[3,4-b]pyridine-5-carboxylate]
198 to 202 | CCCC1=C(C(=O)OCC)C(c2ccccc2C(F)(F)F)c2c[nH]nc2N1 (stereo not shown) [Example 31, Ethyl 4,7-dihydro-6-propyl-4-(2-trifluoromethylphenyl)-2H-pyrazolo[3,4-b]pyridine-5-carboxylate]
169 | CCCC1=C(C(=O)OCC)C(c2ccccc2OC)c2c[nH]nc2N1 (stereo not shown) [Example 32, Ethyl 4,7-dihydro-4-(2-methoxyphenyl)-6-propyl-2H-pyrazolo[3,4-b]pyridine-5-carboxylate]
203 | CCCC1=C(C(=O)OCC)C(c2ccccc2OCC)c2c[nH]nc2N1 (stereo not shown) [Example 33, Ethyl 4-(2-ethoxyphenyl)-4,7-dihydro-6-propyl-2H-pyrazolo[3,4-b]pyridine-5-carboxylate]
205 | CCCOc1ccccc1C1C(C(=O)OCC)=C(CCC)Nc2n[nH]cc21 (stereo not shown) [Example 34, Ethyl 4,7-dihydro-4-(2-propoxyphenyl)-6-propyl-2H-pyrazolo[3,4-b]pyridine-5-carboxylate]
210 | CCCC1=C(C(=O)OCC)C(c2ccccc2OC(C)C)c2c[nH]nc2N1 (stereo not shown) [Example 35, Ethyl 4,7-dihydro-4-(2-isopropyloxyphenyl)-6-propyl-2H-pyrazolo[3,4-b]pyridine-5-carboxylate]
195 | CCCC1=C(C(=O)OCC)C(c2ccccc2OC2CCCC2)c2c[nH]nc2N1 (stereo not shown) [Example 37, Ethyl 4-(2-cyclopentyloxyphenyl)-4,7-dihydro-6-propyl-2H-pyrazolo[3,4-b]pyridine-5-carboxylate]
128 | CCCC1=C(C(=O)OCC)C(c2ccccc2OCc2ccccc2)c2c[nH]nc2N1 (stereo not shown) [Example 38, Ethyl 4-(2-benzyloxyphenyl)-4,7-dihydro-6-propyl-2H-pyrazolo[3,4-b]pyridine-5-carboxylate]
198 | CCCC1=C(C(=O)OCC)C(c2ccccc2SC)c2c[nH]nc2N1 (stereo not shown) [Example 39, Ethyl 4,7-dihydro-4-(2-methylthiophenyl)-6-propyl-2H-pyrazolo[3,4-b]pyridine-5-carboxylate]
216 | CCCC1=C(C(=O)OCC)C(c2ccccc2[S+](C)[O-])c2c[nH]nc2N1 (stereo not shown) [Example 40, Ethyl 4,7-dihydro-4-(2-methylsulfinylphenyl)-6-propyl-2H-pyrazolo[3,4-b]pyridine-5-carboxylate]
218 | CCCC1=C(C(=O)OCC)C(c2ccccc2[N+](=O)[O-])c2c[nH]nc2N1 (stereo not shown) [Example 41, Ethyl 4,7-dihydro-4-(2-nitrophenyl)-6-propyl-2H-pyrazolo[3,4-b]pyridine-5-carboxylate]
211 | CCCC1=C(C(=O)OCC)C(c2ccccc2C#N)c2c[nH]nc2N1 (stereo not shown) [Example 42, Ethyl 4-(2-cyanophenyl)-4,7-dihydro-6-propyl-2H-pyrazolo[3,4-b]pyridine-5-carboxylate]
207 | CCCC1=C(C(=O)OCC)C(c2cccc(F)c2F)c2c[nH]nc2N1 (stereo not shown) [Example 43, Ethyl 4-(2,3-difluorophenyl)-4,7-dihydro-6-propyl-2H-pyrazolo[3,4-b]pyridine-5-carboxylate]
220 | CCCC1=C(C(=O)OCC)C(c2cccc(Cl)c2Cl)c2c[nH]nc2N1 (stereo not shown) [Example 44, Ethyl 4-(2,3-dichlorophenyl)-4,7-dihydro-6-propyl-2H-pyrazolo[3,4-b]pyridine-5-carboxylate]
159 to 162 | CCCC1=C(C(=O)OCC)C(c2cccc(F)c2C)c2c[nH]nc2N1 (stereo not shown) [Example 45, Ethyl 4-(3-fluoro-2-methylphenyl)-4,7-dihydro-6-propyl-2H-pyrazolo[3,4-b]pyridine-5-carboxylate]
205 to 206 | CCCC1=C(C(=O)OCC)C(c2cccc(OC)c2OC)c2c[nH]nc2N1 (stereo not shown) [Example 46, Ethyl 4-(2,3-dimethoxyphenyl)-4,7-dihydro-6-propyl-2H-pyrazolo[3,4-b]pyridine-5-carboxylate]
236 to 238 | CCCC1=C(C(=O)OCC)C(c2cccc(C(F)(F)F)c2Cl)c2c[nH]nc2N1 (stereo not shown) [Example 47, Ethyl 4-(2-chloro-3-trifluoromethylphenyl)-4,7-dihydro-6-propyl-2H-pyrazolo[3,4-b]pyridine-5-carboxylate]
168 to 169 | CCCC1=C(C(=O)OCC)C(c2cc(F)ccc2F)c2c[nH]nc2N1 (stereo not shown) [Example 49, Ethyl 4-(2,5-difluorophenyl)-4,7-dihydro-6-propyl-2H-pyrazolo[3,4-b]pyridine-5-carboxylate]
162 | CCCC1=C(C(=O)OCC)C(c2cc(Cl)ccc2Cl)c2c[nH]nc2N1 (stereo not shown) [Example 50, Ethyl 4-(2,5-dichlorophenyl)-4,7-dihydro-6-propyl-2H-pyrazolo[3,4-b]pyridine-5-carboxylate]
164 to 167 | CCCC1=C(C(=O)OCC)C(c2cc(F)ccc2OC)c2c[nH]nc2N1 (stereo not shown) [Example 51, Ethyl 4-(5-fluoro-2-methoxyphenyl)-4,7-dihydro-6-propyl-2H-pyrazolo[3,4-b]pyridine-5-carboxylate]
182 | CCCC1=C(C(=O)OCC)C(c2cc(OC)ccc2Cl)c2c[nH]nc2N1 (stereo not shown) [Example 52, Ethyl 4-(2-chloro-5-methoxyphenyl)-4,7-dihydro-6-propyl-2H-pyrazolo[3,4-b]pyridine-5-carboxylate]
169 to 170 | CCCC1=C(C(=O)OCC)C(c2cc(OC)ccc2OC)c2c[nH]nc2N1 (stereo not shown) [Example 53, Ethyl 4-(2,5-dimethoxyphenyl)-4,7-dihydro-6-propyl-2H-pyrazolo[3,4-b]pyridine-5-carboxylate]
185 | CCCC1=C(C(=O)OCC)C(c2c(F)cccc2F)c2c[nH]nc2N1 (stereo not shown) [Example 54, Ethyl 4-(2,6-difluorophenyl)-4,7-dihydro-6-propyl-2H-pyrazolo[3,4-b]pyridine-5-carboxylate]
202 | CCCC1=C(C(=O)OCC)C(c2c(Cl)cccc2Cl)c2c[nH]nc2N1 (stereo not shown) [Example 55, Ethyl 4-(2,6-dichlorophenyl)-4,7-dihydro-6-propyl-2H-pyrazolo[3,4-b]pyridine-5-carboxylate]
180 to 183 | CCCC1=C(C(=O)OCC)C(c2c(F)cccc2Cl)c2c[nH]nc2N1 (stereo not shown) [Example 56, Ethyl 4-(2-chloro-6-fluorophenyl)-4,7-dihydro-6-propyl-2H-pyrazolo[3,4-b]pyridine-5-carboxylate]
108 to 111 | CCCC1=C(C(=O)OCC)C(c2ccco2)c2c[nH]nc2N1.O=C(O)/C=C\C(=O)O (stereo not shown) [Example 59, Ethyl 4-(furan-2-yl)-4,7-dihydro-6-propyl-2H-pyrazolo[3,4-b]pyridine-5-carboxylate maleate]

SMILES | melting point [°C]
CCCCOc1ccccc1C1C(C(=O)OCC)=C(CCC)Nc2n[nH]cc21 (stereo not shown) [Example 36, Ethyl 4-(2-butoxyphenyl)-4,7-dihydro-6-propyl-2H-pyrazolo[3,4-b]pyridine-5-carboxylate] | 171
